Test results published in patent US6197811A, “Cytokine production inhibitors” (Terragen Discovery Inc., priority 1998, dated 2001).

System: IL-1β production in human peripheral blood mononuclear cells (PBMC)
Assay: LPS-induced IL-1β release from human peripheral blood mononuclear cells (PBMC), ELISA
Type: cell-based
Settings: 1 ng/ml LPS, 18 hours at 37° C., IL-1β by ELISA
Description: IL-1 Release from Human Peripheral Blood Mononuclear Cells (PBMC)
Human peripheral blood mononuclear cells (PBMC) were separated from Buffy coats obtained from normal healthy donors on Lymphoprep. […] Cells were incubated for 18 hours at 37° C. with 5% CO2 and the cell culture supernatants harvested and stored at -70° C. Effects on the production of IL-1β were determined by using an ELISA.

Going from C/C=C/[C@@H]1OC(=O)C=C[C@H]1OC(=O)c1ccccc1 [Example 1, ((2S,3R)-3,6-Dihydro-6-oxo-(2E-prop-1-enyl-2H-pyran-3-yl)) benzoate] to C/C=C/[C@@H]1OC(=O)C=C[C@@H]1OC(=O)Cc1ccccc1 [Example 5h, ((2S,3S)-3,6-Dihydro-6-oxo-(2E-prop-1-enyl-2H-pyran-3-yl))phenylacetate], the IC50 falls from 2400 nM to 1400 nM (1.7-fold). The second is the more potent here.

First: C/C=C/[C@@H]1OC(=O)C=C[C@H]1OC(=O)c1ccc(-c2ccccc2)cc1 [Example 1a, ((2S,3R)-3,6-Dihydro-6-oxo-(2E-prop-1-enyl-2H-pyran-3-yl))-4-biphenyl carboxylate]
Second: C/C=C/[C@@H]1OC(=O)C=C[C@@H]1OC(=O)c1ccc(-c2ccccc2)cc1 [Example 5b, ((2S,3S)-3,6-Dihydro-6-oxo-(2E-prop-1-enyl-2H-pyran-3-yl))-4-biphenylcarboxylate]
The IC50 of the first is higher: > 7500 nM for the first, 300 nM for the second. The second is the more potent here.

Going from C/C=C/[C@@H]1OC(=O)C=C[C@H]1OC(=O)c1ccc2c(c1)C(=O)c1ccccc1-2 [Example 1b, ((2S,3R)-3,6-Dihydro-6-oxo-(2E-prop-1-enyl-2H-pyran-3-yl))-9-oxo-9H-fluorene carboxylate] to C/C=C/[C@@H]1OC(=O)C=C[C@@H]1OC(=O)c1ccc2c(c1)C(=O)c1ccccc1-2 [Example 5f, ((2S,3S)-3,6-Dihydro-6-oxo-(2E-prop-1-enyl-2H-pyran-3-yl))-9-oxo-9H-fluorene-2-carboxylate], the IC50 falls from 4500 nM to 1200 nM (3.8-fold).

Compared with C/C=C/[C@@H]1OC(=O)C=C[C@H]1OC(=O)c1cccc2c1C(=O)c1ccccc1-2 [Example 1c], C/C=C/[C@@H]1OC(=O)C=C[C@@H]1OC(=O)c1cccc2c1C(=O)c1ccccc1-2 [Example 5e, ((2S,3S)-3,6-Dihydro-6-oxo-(2E-prop-1-enyl-2H-pyran-3-yl))-9-oxo-9H-fluorene carboxylate] is 31-fold lower in IC50: 4000 nM for the first, 130 nM for the second. The second is the more potent here.

First: C/C=C/[C@H]1OC(=O)C=C[C@@H]1NCc1ccccc1 [Example 2a, (5S,6R)-5-benzylamino-6E-prop-1-ene-5,6-dihydro-2H-pyran-2-one]
Second: C/C=C/[C@H]1OC(=O)C=C[C@@H]1NCc1ccc(-c2ccccc2)cc1 [Example 2b, (5S,6R)-5-(4-biphenylmethylamino)-6E-prop-1-ene-5,6-dihydro-2H-pyran-2-one]
The IC50 of the first is 1.7-fold higher: 12000 nM for the first, 6900 nM for the second.

First: C/C=C/[C@H]1OC(=O)C=C[C@@H]1NCC1c2ccccc2-c2ccccc21 [Example 2c, (5S,6R)-5-(2-9H-fluorenemethylamino)-6E-prop-1-ene-5,6-dihydro-2H-pyran-2-one]
Second: C/C=C/[C@@H]1OC(=O)C=C[C@H]1NC(=O)c1cccc2c1-c1ccccc1C2=O [Example 3b, ((2S,3R)-3,6-Dihydro-6-oxo-(2E-prop-1-enyl-2H-pyran-3-yl))-9-oxo-9H-fluorene-4-amide]
The IC50 of the first is 2.8-fold lower: 3600 nM for the first, 10000 nM for the second. The first is the more potent here.

First: C/C=C/[C@@H]1OC(=O)C=C[C@H]1NC(=O)c1ccccc1 [Example 3, ((2S,3R)-3,6-Dihydro-6-oxo-(2E-prop-1-enyl-2H-pyran-3-yl)) phenylamide]
Second: C/C=C/[C@@H]1OC(=O)C=C[C@H]1NC(=O)c1ccc(-c2ccccc2)cc1 [Example 3a, ((2S,3R) -3,6-Dihydro-6-oxo-(2E-prop-1-enyl-2H-pyran-3-yl) )4-biphenylamide]
The IC50 of the first is 9.7-fold higher: 9700 nM for the first, 1000 nM for the second. The second is the more potent here.

Going from C/C=C/[C@@H]1OC(=O)C=C[C@H]1NC(=O)c1ccc(-c2ccccc2)cc1 [Example 3c, ((2S,3R)-3,6-Dihydro-6-oxo-(2E-prop-1-enyl-2H-pyran-3-yl))-4-biphenylamide] to C/C=C/[C@@H]1OC(=O)C=C[C@@H]1OC(=O)Cc1ccc(-c2ccccc2)cc1 [Example 5g, ((2S,3S)-3,6-Dihydro-6-oxo-(2E-prop-1-enyl-2H-pyran-3-yl))-4-biphenylacetate], the IC50 rises from 1300 nM to 13400 nM (10-fold). The first is the more potent here.

Compared with C/C=C/[C@@H]1OC(=O)C=C[C@H]1NC(=O)c1cccc2c1-c1ccccc1C2=O [Example 3d, ((2S,3R)-3,6-Dihydro-6-oxo-(2E-prop-1-enyl-2H-pyran-3-yl))-9-oxo-9H-fluorene-4-amide], C/C=C/[C@@H]1OC(=O)C=C[C@@H]1OC(=O)c1cccc2c1Cc1ccccc1-2 [Example 5d, ((2S,3S)-3,6-Dihydro-6-oxo-(2E-prop-1-enyl-2H-pyran-3-yl))-9H-fluorenecarboxylate] is 38-fold lower in IC50: 11300 nM for the first, 300 nM for the second. The second is the more potent here.

Compared with C/C=C/[C@@H]1OC(=O)C=C[C@H]1OC(=O)/C=C/C(C)=C/[C@@H](C)CCCCCC [Example 4, ((2S,3R)-3,6-Dihydro-6-oxo-(2E-prop-1-enyl-2H-pyran-3-yl))-(2E,4E)-4,6-dimethyldodecanoate], CCCCCC[C@H](C)/C=C(C)/C=C/C(=O)O[C@H]1C=CC(=O)O[C@H]1/C=C/C(=O)OCC [Example 6, ((2S,3S)-3,6-Dihydro-6-oxo-(2E-3-oxo-3-ethoxyprop-1-enyl-2H-pyran-3-yl))-(2E,4E)-4,6-dimethyldodecadienoate] is 1.5-fold higher in IC50: 4000 nM for the first, 6000 nM for the second. The first is the more potent here.

Going from C/C=C/[C@@H]1OC(=O)C=C[C@@H]1OCOCCOC [Example 4a, (2S,3S)-5-(2-Methoxy-ethoxymethoxy)-6-(2E-prop-1-enyl)-5,6-dihydro-2H-pyran-2-one] to C/C=C/[C@@H]1OC(=O)C=C[C@@H]1OCc1ccccc1 [Example 4c, (2S,3S)-5-Benzyloxy-6-(2E-prop-1-enyl)-5,6-dihydro-2H-pyran-2-one], the IC50 falls from 8500 nM to 1200 nM (7.1-fold). The second is the more potent here.

First: C/C=C/[C@@H]1OC(=O)C=C[C@@H]1OCc1ccc(-c2ccccc2)cc1 [Example 4b, (2S,3S)-5-(4-Biphenylmethoxy)-6-(2E-prop-1-enyl)-5,6-dihydro-2H-pyran-2-one]
Second: C/C=C/[C@@H]1OC(=O)C=C[C@@H]1OC(=O)c1ccc(-c2ccc(CC)cc2)cc1 [Example 5c, ((2S,3S)-3,6-Dihydro-6-oxo-(2E-prop-1-enyl-2H-pyran-3-yl))-4'-ethyl-4-biphenylcarboxylate]
The IC50 of the first is 4-fold higher: 400 nM for the first, 100 nM for the second.

Compared with C/C=C/[C@@H]1OC(=O)C=C[C@@H]1OC(=O)/C=C/CCCCCCCCC [Example 5, ((2S,3S)-3,6-Dihydro-6-oxo-(2E-prop-1-enyl-2H-pyran-3-yl))dodeca-2E-enoate], C/C=C/[C@@H]1OC(=O)C=C[C@@H]1OC(=O)CCCCCCCCCCC [Example 5l, ((2S,3S)-3,6-Dihydro-6-oxo-(2E-prop-1-enyl-2H-pyran-3-yl))dodecanoate] is 3-fold higher in IC50: 2800 nM for the first, 8400 nM for the second. The first is the more potent here.

C/C=C/[C@@H]1OC(=O)C=C[C@@H]1OC(=O)/C=C/c1ccco1 [Example 5a, ((2S,3S)-3,6-dihydro-6-oxo-(2E-prop-1-enyl-2H-yran-3-yl))-3-(2-furfuryl)acrylate] and C/C=C/[C@@H]1OC(=O)C=C[C@@H]1OC(=O)/C=C/c1cccc(C)c1 [Example 5i, ((2S,3S)-3,6-Dihydro-6-oxo-(2E-prop-1-enyl-2H-pyran-3-yl))-3m-tolylacrylate] are within 1.5-fold of each other in IC50: 1200 nM for the first, 1000 nM for the second.

Compared with C/C=C/[C@@H]1OC(=O)C=C[C@@H]1OC(=O)/C=C/c1ccc2ccccc2c1 [Example 5j, ((2S,3S)-3,6-Dihydro-6-oxo-(2E-prop-1-enyl-2H-pyran-3-yl))-3-(2-naphthyl)acrylate], C/C=C/[C@@H]1OC(=O)C=C[C@@H]1OC(=O)c1ccc(CCCCC)cc1 [Example 5k, ((2S,3S)-3,6-Dihydro-6-oxo-(2E-prop-1-enyl-2H-pyran-3-yl))-4-pentylbenzoate] is 1.8-fold lower in IC50: 700 nM for the first, 400 nM for the second.

First: C/C=C/[C@@H]1OC(=O)C=C[C@@H]1OC(=O)CCCCCCCCCCCCC [Example 5m, ((2S,3S)-3,6-Dihydro-6-oxo-(2E-prop-1-enyl-2H-20 pyran-3-yl))tetradodecanoate]
Second: CCCCCC[C@H](C)/C=C(C)/C=C/C(=O)O[C@H]1C=CC(=O)O[C@H]1/C=C/C(=O)OCCCC [Example 6b, ((2S,3S)-3,6-Dihydro-6-oxo-(2E-3-oxo-3-butoxyprop-1-enyl)-2H-pyran-3-yl)-(2E,4E)-4,6-dimethyldodecadienoate]
The IC50 of the first is 3.9-fold higher: 5400 nM for the first, 1400 nM for the second.

First: CCCCCC[C@H](C)/C=C(C)/C=C/C(=O)O[C@H]1C=CC(=O)O[C@H]1/C=C/C(=O)OCCC [Example 6a, ((2S,3S)-3,6-Dihydro-6-oxo-(2E-3-oxo-3-propoxyprop-1-enyl)-2H-pyran-3-yl)-(2E,4E)-4,6-dimethyldodecadienoate]
Second: CCCCCC[C@H](C)/C=C(C)/C=C/C(=O)O[C@H]1C=CC(=O)O[C@H]1/C=C/C(=O)NCc1ccccc1 [Example 6c, ((2S,3S)-3,6-Dihydro-6-oxo-(2E-3-oxo-3-benzylaminoprop-1-enyl)-2H-pyran-3-yl)-(2E,4E)-4,6-dimethyldodecadienoate]
The IC50 of the first is lower: 1400 nM for the first, > 9000 nM for the second. The first is the more potent here.
